This note sets out measurements from ChEMBL document CHEMBL3886543, “Quinoline derivatives useful as CB-1 inverse agonists” (2016).

Experiment [1] deals with T1, Cannabinoid receptor 1 (Homo sapiens, UniProt P21554). The experiment can be described thus: Membranes were purchased from Perkin Elmer.
The target of experiment [2] is T2, Cannabinoid receptor 2 (Homo sapiens, UniProt P34972). The experiment can be described thus: Membranes were prepared as described in FELDER, C. C., et al., Molecular Pharmacology, 1992, pp 838-845, Vol. 42.
For experiment [3], the target named is T1, Cannabinoid receptor 1. Nature of the experiment: (§1) cAMP Assay: The following mixtures and buffer solutions were prepared: (a) Buffer 1: HBSS (Mediatech Cat#21-023-CV) with 5 mM HEPES (1 mM stock, Gibco BRL Cat#15630-056) and 0.1% BSA (7.5% stock, Invitrogen Cat#15260-037); (b) Buffer 2: 0.5 mM IBMX (200 mM stock in DMSO, Sigma 15879) in Buffer 1; (c) 1 uM cAMP Standard (50 uM stock, Perkin Elmer Cat# AD0262) diluted in Buffer 2 and serially diluted in Buffer 2, 12 doses at 1/2 dilutions resulting in a dose range of 1 uM to 0.5 nM; (d) d2 labelled cAMP (CisBio HTRF Detection Kit Cat #62AM4PEB reconstituted with 6 ml dH2O) diluted 1/20 with lysis buffer (CisBio HTRF Detection Kit Cat #62AM4PEB); (e) anti-cAMP (CisBio HTRF Detection Kit Cat #62AM4PEB reconstituted with 5 ml dH2O) diluted 1/20 with lysis buffer (CisBio HTRF Detection Kit Cat #62AM4PEB); and (f) Forskolin (Sigma Cat# F6886, 10 mM in DMSO) diluted first in DMSO to 1 mM and then to 1.5 uM in Buffer 2. The experiment is classed as functional. On the technique in general: TR-FRET usually uses a lanthanide donor and a delayed reading to cut background.

Experiment [4] deals with T2, Cannabinoid receptor 2. Described as §1. The experiment is classed as functional.

T1 sequence (P21554 whole entry): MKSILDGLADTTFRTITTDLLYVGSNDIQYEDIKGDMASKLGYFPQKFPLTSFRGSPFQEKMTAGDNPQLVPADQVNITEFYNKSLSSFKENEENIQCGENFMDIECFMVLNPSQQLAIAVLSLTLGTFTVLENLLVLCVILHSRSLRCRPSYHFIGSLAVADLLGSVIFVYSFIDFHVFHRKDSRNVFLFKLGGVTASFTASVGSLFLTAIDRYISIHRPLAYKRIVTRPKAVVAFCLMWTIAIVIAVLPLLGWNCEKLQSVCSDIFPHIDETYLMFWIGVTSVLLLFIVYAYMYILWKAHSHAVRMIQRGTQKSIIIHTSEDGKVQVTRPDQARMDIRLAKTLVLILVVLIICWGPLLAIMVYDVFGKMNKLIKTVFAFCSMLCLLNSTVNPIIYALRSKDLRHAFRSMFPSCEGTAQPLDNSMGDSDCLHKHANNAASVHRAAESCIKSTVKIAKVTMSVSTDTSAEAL
T2 sequence (P34972 whole entry): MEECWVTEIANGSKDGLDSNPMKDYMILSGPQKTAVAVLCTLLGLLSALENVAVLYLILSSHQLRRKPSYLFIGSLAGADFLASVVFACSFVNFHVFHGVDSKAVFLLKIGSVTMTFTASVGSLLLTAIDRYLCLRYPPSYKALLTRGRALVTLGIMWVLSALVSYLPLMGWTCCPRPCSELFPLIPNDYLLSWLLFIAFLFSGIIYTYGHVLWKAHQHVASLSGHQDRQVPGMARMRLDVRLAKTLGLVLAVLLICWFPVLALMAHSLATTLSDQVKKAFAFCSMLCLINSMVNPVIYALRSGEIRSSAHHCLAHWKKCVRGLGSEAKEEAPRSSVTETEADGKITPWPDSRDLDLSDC

For the compound `OC(c1ccc(Cl)cc1)(c1ccsc1)c1ccc2nccc(/C=C/c3ccccc3)c2c1` (centres undefined), the EC50 on Cannabinoid receptor 1 [1] stood at 223 nM.
On the same count and under the same terms, next, `O=c1cc(/C=C/c2ccccc2)c2cc(C(c3ccc(Cl)cc3)c3ccc(Cl)cc3)ccc2[nH]1`: 35.8 nM; `Cn1c(=O)cc(CCc2cccc(Cl)c2)c2cc(C(c3ccc(Cl)cc3)c3nccs3)ccc21` (centres undefined): > 2500 nM.
On to `O=c1cc(NC2CCN(S(=O)(=O)C(F)(F)F)CC2)c2cc(C(c3ccc(Cl)cc3)c3nccs3)ccc2[nH]1` (centres undefined), for which a half-maximal effect at Cannabinoid receptor 1 [1] (EC50) was put at 4.4 nM.
Consider `Clc1ccc(C(c2ccc3nccc(/C=C/c4ccccc4)c3c2)c2nccs2)cc1` (centres undefined), for which the EC50 was 55.1 nM at Cannabinoid receptor 1 [1] and > 5000 nM on Cannabinoid receptor 2 [2].
For `O=c1cc(CCc2cccc(Cl)c2)c2cc(C(O)(c3ccc(Cl)cc3)c3nccs3)ccc2[nH]1` (centres undefined), the 50% effective concentration (EC50) on Cannabinoid receptor 1 [1] was > 2500 nM.
With `O=c1cc(/C=C/c2ccc(C(F)(F)F)cc2)c2cc(C(c3ccc(Cl)cc3)c3cccs3)ccc2[nH]1` (centres undefined), the EC50 was 15.1 nM at Cannabinoid receptor 1 [1] and > 5000 nM at Cannabinoid receptor 2 [2].
In the case of `O=c1cc(NC2CCN(S(=O)(=O)C(F)(F)F)CC2)c2cc(C(c3ccc(Cl)cc3)c3ccc(Cl)cc3)ccc2[nH]1`, the EC50 at Cannabinoid receptor 1 [1] was 1.2 nM; at Cannabinoid receptor 2 [2], 53 nM.
`OC(c1ccc(Cl)cc1)(c1ccc2nccc(/C=C/c3ccccc3)c2c1)c1cccs1` (centres undefined): the EC50 at Cannabinoid receptor 1 [1] was 101 nM.
`Clc1ccc(C(c2ccc3nccc(/C=C/c4ccccc4)c3c2)c2cccs2)cc1` (centres undefined) registered a 50% effective concentration (EC50) at Cannabinoid receptor 1 [1] of 97.3 nM.
On to `N=C(N)N1CCC(Nc2cc(=O)[nH]c3ccc(C(c4ccc(Cl)cc4)c4ccc(Cl)cc4)cc23)CC1`, for which the EC50 at Cannabinoid receptor 1 [3] and on Cannabinoid receptor 2 [4] was > 10000 nM each time.
At Cannabinoid receptor 1 [1], `O=c1cc(CCc2cccc(Cl)c2)c2cc(C(c3ccc(Cl)cc3)c3nccs3)ccc2[nH]1` (centres undefined) displayed a half-maximal effective concentration (EC50) of 332 nM.
Turning to `O=c1cc(/C=C/c2cccc(F)c2)c2cc(C(c3ccc(Cl)cc3)c3ccsc3)ccc2[nH]1` (centres undefined), the 50% effective concentration (EC50) at Cannabinoid receptor 1 [1] is 22 nM; at Cannabinoid receptor 2 [2], > 5000 nM.
On to `CCOC(=O)CCCOc1ccc(Nc2cc(=O)[nH]c3ccc(C(c4ccc(Cl)cc4)c4ccc(Cl)cc4)cc23)cc1`, for which the half-maximal effective concentration (EC50) at Cannabinoid receptor 1 [3] was 68 nM; on Cannabinoid receptor 2 [4], > 10000 nM.
For the compound `O=c1cc(/C=C/c2ccc(C(F)(F)F)cc2)c2cc(C(c3ccc(Cl)cc3)c3nccs3)ccc2[nH]1` (centres undefined), the concentration giving a half-maximal response (EC50) at Cannabinoid receptor 1 [3] was 397 nM; at Cannabinoid receptor 2 [4], > 10000 nM.
The matching figures for `CC(C)(C)OC(=O)CN1CCC(Nc2cc(=O)[nH]c3ccc(C(c4ccc(Cl)cc4)c4ccc(Cl)cc4)cc23)CC1`: 5 nM and > 10000 nM.
`OC(c1ccc(Cl)cc1)(c1ccc(Cl)cc1)c1ccc2nccc(/C=C/c3ccccc3)c2c1` returned a half-maximal effective concentration (EC50) on Cannabinoid receptor 1 [1] of 52.1 nM.
Still for that read-out and setting: next, `Clc1ccc(C(c2ccc(Cl)cc2)c2ccc3nccc(/C=C/c4ccccc4)c3c2)cc1`: 4.1 nM.
With `O=S(=O)(N1CCC(Nc2ccnc3c(NC4CCN(S(=O)(=O)C(F)(F)F)CC4)cc(C(c4ccc(Cl)cc4)c4ccc(Cl)cc4)cc23)CC1)C(F)(F)F`, the concentration for a half-maximal effect (EC50) at Cannabinoid receptor 1 [3] and on Cannabinoid receptor 2 [4] was > 14000 nM in each case.
With `O=c1cc(Nc2ccc(Cc3ccccc3)cc2)c2cc(C(c3ccc(Cl)cc3)c3ccc(Cl)cc3)ccc2[nH]1`, the EC50 at Cannabinoid receptor 1 [3] is 15 nM; at Cannabinoid receptor 2 [4], > 10000 nM.
As to `O=c1cc(Nc2ccc(F)c(Cl)c2)c2cc(C(c3ccc(Cl)cc3)c3ccc(Cl)cc3)ccc2[nH]1`, the concentration for a half-maximal effect (EC50) on Cannabinoid receptor 1 [3] was 10 nM; on Cannabinoid receptor 2 [4], > 10000 nM.
Take `COc1ccc(C(O)(c2ccc3nccc(/C=C/c4ccccc4)c3c2)c2nccs2)cc1` (centres undefined): at Cannabinoid receptor 1 [1], it took 1870 nM to reach a half-maximal effect (EC50).
Same read-out and setting: for `O=c1cc(/C=C/c2ccccc2)c2cc(C(c3ccc(Cl)cc3)c3nccs3)ccc2[nH]1` (centres undefined) the value was 34.6 nM.

Usually EC50 stands for the concentration that produces a half-maximal response.
